The test system of data set [1] is mature human erythrocytes. Nature of the data set: MCV and MCHC of inhibitor-treated erythrocytes (ADVIA 120 Hematology System). In kind it is cell-based. To be noted: Hct 0.6%. The protocol:
Erythrocyte concentrates (0.6% Hct), suspended in 30 ml Ringer solution were treated with Bay 11–7082 (20 μM), parthenolide (50 μM) and DMF (140 μM) for 24 h, respectively. DMSO (0.2% (v/v))-treated erythrocytes served as negative controls. After incubation, samples were centrifuged at 210 g for 10 min at room temperature in order to obtain RBC pellets. Ionomycin (0.25 μM)-treated erythrocytes served as positive controls, and were first incubated in Ringer solution in the absence of ionomycin for 21.5 h. Subsequently, the cells were treated with ionomycin for 2.5 h, and the MCV and MCHC values were determined. The MCV and MCHC analysis was carried out with an ADVIA 120 Hematology System Instrument (Siemens, Germany).

Data set [2] has as its system mature human erythrocytes. Nature of the data set: Forward scatter (FSC, GeoMean) by flow cytometry, cell volume / cell shrinkage. It is filed as cell-based. To be noted: for GeoMean: Hct 0.6%; for decrease of cell volume (forward scatter): increasing concentrations, 24 h and 48 h, 0.4% Hct. As to the method: After incubation, 2·10^6 RBCs were washed in 500 μl Annexin-binding buffer. RBC pellets were then vortexed gently to get a homogenous cell suspension. To detect phosphatidylserine (PS) on the outer leaflet of the plasma membrane, these cells were subsequently stained with 32 μl Annexin V-FLUOS at a 1:33 dilution and mixed gently on a vortex mixer. After 20 min incubation in the dark at room temperature, 200 μl of Annexin-binding buffer was added to each sample, thoroughly vortexed to achieve single cell suspensions, and analysed by flow cytometry on a FACS-Calibur (Becton Dickinson, Heidelberg, Germany). Cell volume was determined by forward scatter (FSC), and Annexin V-FLUOS binding was measured in the FL1-channel.
A general note: Flow cytometry measures light scatter and fluorescence of single cells or particles in a stream.

The subject of data set [3] is GSH in mature human erythrocytes. Briefly: Intracellular GSH measurement by HPLC (GS-NEM conjugate). In kind it is cell-based. To be noted: for GSH depletion / GSH: 24 h; for GSH: 0.6% Hct, DMSO control 7.52; for IC50: Homo sapiens, Erythrocyte, 24 h in Ringer solution, 0.6% Hct (mean GSH 15 μM), read-out: IC50 (GSH depletion). The protocol:
(§1) DMSO-treated erythrocytes served as negative controls. After incubation, erythrocytes were treated with 0.6 mM (final concentration) NEM prepared as a 310 mM stock in H2O. NEM functioned as the best alkylating agent for GSH conjugation to prevent sample manipulation-induced oxidation of GSH. After a 2-min incubation at room temperature, samples were centrifuged at 210 g for 10 min in order to obtain RBC pellets. These were immediately stored at −20 °C until GSH and GSSG analyses were performed. All measurements were carried out within one week after the treatment. GSH and GSSG were measured in the clear supernatant obtained by treatment of 0.1 ml RBCs with 0.12 ml 15% (w/v) trichloroacetic acid. GSH analysis was carried out by high-performance liquid chromatography (HPLC), as recently reported. […] GSSG was measured photometrically by the GSH recycling method with slight modifications. For hemoglobin determination, one aliquot of the RBC suspensions (10 μl) was hemolysed by 1:200 dilution with H2O[62]. The HPLC analyses were carried out with an Agilent series 1100 instrument (Agilent Technologies, Milan, Italy). The photometric analyses were performed with a Jasco V-530 instrument (Jasco Europe s.r.l. Cremella, Como, Italy).

Data set [4] concerns GSSG in mature human erythrocytes. Briefly: Intracellular GSSG measurement, photometric GSH recycling method. It is filed as cell-based. To be noted: 24 h, 0.6% Hct, DMSO control 0.06. As to the method:
as §1

For data set [5], the target named is T1, glucose-6-phosphate dehydrogenase (G6PDH) (Homo sapiens, UniProt P11413).
T1 construct: endogenous in cells; host or cells: human erythrocytes (RBC concentrates), treated 24 h, then lysed
Nature of the data set: G6PDH activity in lysates of inhibitor-treated erythrocytes. In kind it is cell-based. The settings on record: for EC50: read-out: EC50 (inhibition of G6PDH activity). As to the method: (§2) DMSO-treated erythrocytes served as negative controls. Determinations of the enzymatic activities of G6PDH, 6PGDH and GR (+/− FAD) were performed in leukocytes- and platelets-free erythrocyte lysates according to standard biochemical procedures. After 10 min incubation (20 min for GR) at 37 °C the reaction was started by adding substrate or co-factor. Changes in absorbance at 340 nm were recorded at 1 min intervals for 20 min (Infinite 200 Nanoquant spectrophotometer; Tecan, Männedorf, Switzerland). Specific activity of all enzymes was expressed as U/g Hb. The combined activity of G6PDH and 6PGDH was determined by estimating the conversion of NADP^+ to NADPH in the presence of glucose-6-phosphate (600 μM). The activity of 6PGDH alone was then measured by the conversion of NADP^+ to NADPH in the presence of 6-phosphogluconate (600 μM). Finally, G6PDH activity was calculated by subtracting 6PGDH activity from total dehydrogenase activity.

Data set [6] deals with T2, glutathione reductase (GR) (Homo sapiens, UniProt P00390).
T2 construct: endogenous in cells; host or cells: human erythrocytes (RBC concentrates), treated 24 h, then lysed
T2 sequence (P00390 1-479 isoform P00390-2): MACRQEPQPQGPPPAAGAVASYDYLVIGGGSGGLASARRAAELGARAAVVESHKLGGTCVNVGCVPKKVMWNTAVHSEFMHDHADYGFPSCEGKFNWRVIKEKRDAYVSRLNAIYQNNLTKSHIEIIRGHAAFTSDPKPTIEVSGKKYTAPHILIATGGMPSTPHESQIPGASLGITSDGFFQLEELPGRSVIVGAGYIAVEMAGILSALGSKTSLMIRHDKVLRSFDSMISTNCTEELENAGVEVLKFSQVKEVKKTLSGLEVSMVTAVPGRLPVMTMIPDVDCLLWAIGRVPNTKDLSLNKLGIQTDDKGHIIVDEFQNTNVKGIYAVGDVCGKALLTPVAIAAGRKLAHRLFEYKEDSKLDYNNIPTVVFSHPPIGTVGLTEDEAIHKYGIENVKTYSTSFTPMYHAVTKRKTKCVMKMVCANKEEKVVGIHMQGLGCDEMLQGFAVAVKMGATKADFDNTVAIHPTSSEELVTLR
Briefly: GR activity (+/- FAD) in lysates of inhibitor-treated erythrocytes. It is filed as cell-based. The settings on record: 24 h. As to the method: as §2

The next data set has as its target T3, 6PGDH (Homo sapiens, UniProt P52209).
T3 construct: endogenous in cells; host or cells: human erythrocytes (RBC concentrates), treated 24 h, then lysed
T3 sequence (P52209 2-483 limits assumed): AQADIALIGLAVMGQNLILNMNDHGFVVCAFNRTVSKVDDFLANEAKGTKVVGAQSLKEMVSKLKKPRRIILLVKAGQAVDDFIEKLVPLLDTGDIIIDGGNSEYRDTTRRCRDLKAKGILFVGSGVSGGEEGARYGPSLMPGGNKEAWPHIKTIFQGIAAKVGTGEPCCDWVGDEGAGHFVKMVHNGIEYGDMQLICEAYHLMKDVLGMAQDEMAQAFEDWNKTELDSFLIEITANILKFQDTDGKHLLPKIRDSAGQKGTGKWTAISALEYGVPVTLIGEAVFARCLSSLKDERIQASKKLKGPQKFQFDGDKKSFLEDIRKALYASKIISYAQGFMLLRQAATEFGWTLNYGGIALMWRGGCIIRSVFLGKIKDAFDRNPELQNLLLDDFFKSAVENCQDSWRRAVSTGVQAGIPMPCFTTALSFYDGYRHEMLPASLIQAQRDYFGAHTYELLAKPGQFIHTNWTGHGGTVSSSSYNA
Nature of the data set: 6PGDH activity in lysates of inhibitor-treated erythrocytes. In kind it is cell-based. The settings on record: at the concentrations used, data not shown. The protocol: as §2

Another data set concerns Trypanosoma brucei. Nature of the data set: In vitro growth inhibition of parasite culture (own unpublished data). It is filed as cell-based. The settings on record: preliminary work.
Another data set deals with human erythrocytes. Nature of the data set: Hemolysis (hemoglobin in supernatant, 405 nm). The settings on record: 24 h / 48 h, compared with Bay 11–7082.
Setting [7] is: 140 μM, 24 h incubation, blood group A Rhesus +.
Setting [8] is: 140 μM, 24 h incubation, blood group B Rhesus +.
The mark [9] stands for this setting: 140 μM, 24 h incubation, blood group O Rhesus +.
Where [10] appears, read: erythrocytes treated 24 h, 0.6% Hct.
Where [11] appears, read: 0.25 μM, 2.5 h incubation (after 21.5 h in Ringer), positive control, blood group A Rhesus +.
The mark [12] stands for this setting: 0.25 μM, 2.5 h incubation (after 21.5 h in Ringer), positive control, blood group B Rhesus +.
[13] abbreviates: 0.25 μM, 2.5 h incubation (after 21.5 h in Ringer), positive control, blood group O Rhesus +.
Setting [14] is: 50 μM, 24 h incubation, blood group A Rhesus +.
The mark [15] stands for this setting: 50 μM, 24 h incubation, blood group B Rhesus +.
The mark [16] stands for this setting: 50 μM, 24 h incubation, blood group O Rhesus +.

By IC50 is commonly meant the point on the concentration scale where inhibition reaches its midpoint. The EC50 is the concentration giving half of the maximal effect. Broadly, the inhibition is the change of the read-out against control, counted positive when it falls. A higher inhibition goes with strong suppression.

Structures can show the parent of a compound that is named as a salt.

T1 sequence (P11413 2-515 limits assumed): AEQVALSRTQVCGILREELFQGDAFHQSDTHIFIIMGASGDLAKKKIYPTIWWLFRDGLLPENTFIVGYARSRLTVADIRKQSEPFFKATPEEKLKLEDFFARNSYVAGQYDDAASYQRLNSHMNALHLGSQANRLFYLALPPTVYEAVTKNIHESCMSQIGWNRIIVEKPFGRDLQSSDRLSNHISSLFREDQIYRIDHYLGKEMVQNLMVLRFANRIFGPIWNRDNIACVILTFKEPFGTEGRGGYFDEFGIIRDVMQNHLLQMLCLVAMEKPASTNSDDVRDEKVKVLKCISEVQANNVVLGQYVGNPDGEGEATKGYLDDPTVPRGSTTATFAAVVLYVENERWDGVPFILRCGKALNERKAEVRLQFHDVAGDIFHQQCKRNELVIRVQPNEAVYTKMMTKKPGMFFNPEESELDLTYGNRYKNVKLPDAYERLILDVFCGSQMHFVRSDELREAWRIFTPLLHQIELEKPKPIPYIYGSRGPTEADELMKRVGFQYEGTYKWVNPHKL

With `COC(=O)/C=C/C(=O)OC` [DMF, dimethyl fumarate], the MCHC turned out to be 33.3 g/dL in data set [1] (setting [7]), 33.5 g/dL in data set [1] (setting [8]) and 32.9 g/dL in data set [1] (setting [9]). The MCV in [1] (setting [7]) amounted to 85.6 fL; in data set [1] (setting [8]), 83.5 fL; in data set [1] (setting [9]), 88.2 fL. Moreover, the GeoMean in data set [2] (setting [7]) is 426.7; in [2] (setting [8]) it was 427.3; in data set [2] (setting [9]), 448. In addition, the “decrease of cell volume (forward scatter)” value in data set [2] is “to a lesser extent”. The GSH depletion entry in data set [3] (140 μM) is given as “almost totally deplete GSH”. Further, the GSH in data set [3] (140 μM) is recorded as 0.17 nmol/mg Hb. In addition, in data set [3], the IC50 worked out at 20 µM. In data set [4] (140 μM), this molecule showed a GSSG of 0.03 nmol/mg Hb. For the same molecule, the G6PDH inactivation in data set [5] (140 μM, 24 h) is ~ 50%. The EC50 in [5] (setting [10]) is 140 µM. Further, in data set [6] (140 μM), the inhibition at 140 µM worked out at 60%. In addition, on 6PGDH, the “inhibitory effect on 6PGDH activity” value is “did not observe any inhibitory effect”. Further, the “in vitro growth inhibitory effect on parasites' culture” value with Trypanosoma brucei is on record as “significant in vitro growth inhibitory effect”. Further, the “ratio of hemolysis to eryptosis” value with human erythrocytes is reported as “even lower as compared with Bay 11–7082”.

Consider `C[C@H](CCC(=O)O)C[C@H](C)C[C@H](C)C(=O)/C=C(\O)[C@H](C)C[C@H](C)C/C=C/[C@@H](C)[C@@H](O)[C@@H](C)[C@@H](O)C[C@@H]1CC[C@@](C)([C@H]2CC[C@@](C)([C@@H](C)O)O2)O1` [Ionomycin], for which the figures for the MCHC in data set [1] (setting [11]), in [1] (setting [12]) and in data set [1] (setting [13]) were 53 g/dL, 50.4 g/dL and 55.7 g/dL, respectively. In addition, the figures for the MCV in data set [1] (setting [11]), in data set [1] (setting [12]) and in data set [1] (setting [13]) were 73.3 fL, 72.2 fL and 75.8 fL, respectively. Moreover, the GeoMean in [2] (setting [11]) is 209.3; in data set [2] (setting [12]), 166.2; in data set [2] (setting [13]), 186.3.

Take `C=C1C(=O)O[C@H]2[C@H]1CC/C(C)=C/CC[C@@]1(C)O[C@@H]21` [Parthenolide, parthenolide]: in [1] (setting [14]), the MCHC was 33.5 g/dL and the MCV came to 84.1 fL. In data set [1] (setting [15]), this molecule gave an MCHC of 34.4 g/dL and an MCV of 82.2 fL. Also, in data set [1] (setting [16]), the MCHC amounted to 33.8 g/dL and the MCV turned out to be 87 fL. For the same molecule, the GeoMean in data set [2] (setting [14]) is on record as 425.24. For the same molecule, the GeoMean in [2] (setting [15]) is on record as 418.8. The same molecule returned a GeoMean in [2] (setting [16]) of 451.5. In addition, the “decrease of cell volume (forward scatter)” value in data set [2] is “to a lesser extent”. Further, in data set [3] (50 μM), the GSH depletion result is reported as “almost totally deplete GSH” and the GSH was 0.30 nmol/mg Hb. The IC50 in data set [3] came out at 10 µM. In data set [4] (50 μM), the GSSG came to 0.03 nmol/mg Hb. Further, in data set [5] (50 μM, 24 h), the G6PDH inhibition entry is reported as “total G6PDH inhibition” and 50 µM produced 100% inhibition. In [5] (setting [10]), the EC100 (inhibition of G6PDH activity) came out at 50 µM and the EC50 worked out at 12 µM. In addition, the “ability to inhibit GR activity” value in data set [6] (parthenolide 1–50 μM) was “Unlike parthenolide, only Bay 11–7082 and DMF were able to inhibit the GR activity”. Also, the “inhibitory effect on 6PGDH activity” value against 6PGDH is recorded as “did not observe any inhibitory effect”. Besides, in the data set on Trypanosoma brucei, the “in vitro growth inhibitory effect on parasites' culture” value is reported as “significant in vitro growth inhibitory effect”. Moreover, the “ratio of hemolysis to eryptosis” value in the data set with human erythrocytes is given as “even lower as compared with Bay 11–7082”.

The record behind these values is paper PMC4926109, “Pharmacological targeting of glucose-6-phosphate dehydrogenase in human erythrocytes by Bay 11–7082, parthenolide and dimethyl fumarate” (Scientific Reports, 2016).
